From US20260364214A1, “MULTIVALENT FIBROBLAST ACTIVATION PROTEIN LIGANDS FOR TARGETED DELIVERY APPLICATIONS” (Philochem AG, priority 2022, published 2026)

Target: T1, recombinant hFAP (Homo sapiens, UniProt Q12884)
T1 sequence (Q12884 26-760 limits assumed): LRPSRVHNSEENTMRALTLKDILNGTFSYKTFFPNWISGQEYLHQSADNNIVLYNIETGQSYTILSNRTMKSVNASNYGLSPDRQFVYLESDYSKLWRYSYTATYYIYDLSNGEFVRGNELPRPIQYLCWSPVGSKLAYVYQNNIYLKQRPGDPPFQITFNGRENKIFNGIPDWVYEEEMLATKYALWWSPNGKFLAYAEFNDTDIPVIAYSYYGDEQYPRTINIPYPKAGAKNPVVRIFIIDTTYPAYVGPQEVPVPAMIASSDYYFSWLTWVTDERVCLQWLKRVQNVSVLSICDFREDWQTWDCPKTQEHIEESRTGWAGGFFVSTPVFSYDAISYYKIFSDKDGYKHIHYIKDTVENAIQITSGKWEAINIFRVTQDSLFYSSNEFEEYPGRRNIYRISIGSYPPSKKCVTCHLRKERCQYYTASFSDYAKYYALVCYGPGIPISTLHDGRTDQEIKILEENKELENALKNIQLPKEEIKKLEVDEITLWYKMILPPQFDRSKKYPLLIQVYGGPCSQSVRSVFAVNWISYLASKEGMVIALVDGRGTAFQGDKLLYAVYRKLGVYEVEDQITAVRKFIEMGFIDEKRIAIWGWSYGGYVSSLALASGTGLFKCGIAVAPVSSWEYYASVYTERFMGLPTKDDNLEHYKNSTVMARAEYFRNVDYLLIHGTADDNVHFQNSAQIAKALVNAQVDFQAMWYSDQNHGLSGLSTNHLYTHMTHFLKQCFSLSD
Experiment: hFAP inhibition assay (Z-Gly-Pro-AMC substrate)
Format: biochemical
Procedure: (§1) Enzymatic activity of hFAP on the Z-Gly-Pro-AMC substrate was measured at room temperature on a microtiter plate reader, monitoring the fluorescence at an excitation wavelength of 360 nm and an emission wavelength of 465 nm. The reaction mixture contained substrate (20 μM), protein (66 μM, constant), assay buffer (50 mM Tris, 100 mM NaCl, and 1 mM EDTA, pH=7.4), and inhibitors with serial dilution from 167 nM to 80 fM, 1:2 in a total volume of 20 μL. Experiments were performed in triplicate, and the mean fluorescence values were fitted using Prism 7. The value is defined as the concentration of inhibitor required to reduce the enzyme activity by 50% after addition of the substrate [FIG. 1 and FIG. 8].
According to the same procedure, further comparative inhibition assays with trimeric binders having inter alia different lengths of linker group B and/or different payload groups C were performed with compounds Tri-ESV6-ValCit-MMAE (14), Tri-ESV6-linker-DOTAGA (13) and diastereoisomers of Tri-ESV6-DOTAGA (11, 12) [FIG. 18]. Comparative hFAP inhibition assays with tetravalent binders 10 and 29 were also performed [FIG. 20].
as §1, with “substrate.” for “substrate [FIG. 1 and FIG. 8].”
as §1, with “e) Inhibition assay with Tri-ESV6-DOTAGA, Tetra-ESV6-DOTAGA, Hexa-ESV6-DOTAGA, Octa-ESV6-DOTAGA, ESV6-L-DOTAGA and BI-ESV6-L-DOTAGA. Enzymatic” for “Enzymatic”, “substrate.” for “substrate [FIG. 1 and FIG. 8].”

IC50 (Z-Gly-Pro-AMC 20 μM, protein 66 μM, pH 7.4, room temperature): 0.012 nM | lower IC50 compared to Tri-ESV6-PEG12-DOTAGA (vs Tri-ESV6-PEG12-DOTAGA): ~ 1000 fold | improvement in IC50 as compared to Bi-ESV6-DOTAGA (vs bivalent Bi-ESV6-DOTAGA): 10 fold | improvement in IC50 as compared to ESV6-DOTAGA (vs monovalent ESV6-DOTAGA): 43 fold
Compound: N#C[C@@H]1CC(F)(F)CN1C(=O)CNC(=O)c1ccnc2c(NC(=O)CCC(=O)NCCNC(=O)CCOCC(COCCC(=O)NCCNC(=O)CCC(=O)Nc3cccc4c(C(=O)NCC(=O)N5CC(F)(F)C[C@H]5C#N)ccnc34)(COCCC(=O)NCCNC(=O)CCC(=O)Nc3cccc4c(C(=O)NCC(=O)N5CC(F)(F)C[C@H]5C#N)ccnc34)NC(=O)CCC(C(=O)O)N3CCN(CC(=O)O)CCN(CC(=O)O)CCN(CC(=O)O)CC3)cccc12 (stereo partly drawn) [Tri-ESV6-DOTAGA, 2,2′,2″-(10-(19-carboxy-1-((4-((2-((S)-2-cyano-4,4-difluoropyrrolidin-1-yl)-2-oxoethyl)carbamoyl)quinolin-8-yl)amino)-14,14-bis((3-((2-(4-((4-((2-((S)-2-cyano-4,4-difluoropyrrolidin-1-yl)-2-oxoethyl)carbamoyl)quinolin-8-yl)amino)-4-oxobutanamido)ethyl)amino)-3-oxopropoxy)methyl)-1,4,9,16-tetraoxo-12-oxa-5,8,15-triazanonadecan-19-yl)-1,4,7,10-tetraazacyclododecane-1,4,7-triyl)triacetic acid]
IC50 / inhibitory activity, comparison in words (recombinant hFAP): remarkably lower IC50 compared to ESV6-DOTAGA, Bi-ESV6-DOTAGA and FAP-2286
